The record followed here is patent US20120077957A1, “Lactam-Bridged Melanocortin Receptor-Specific Peptides” (PALATIN TECHNOLOGIES, INC., priority 2009, published 2012).

Test [1] addresses T1, human MC4-R (Homo sapiens, UniProt P32245).
T1 construct: expressed in transfected cells; host or cells: HEK293 T-REx (tetracycline-regulated, Invitrogen); cell line from Palatin Technologies with license from the University of Michigan
Description: Competitive inhibition binding assay with [I125]-NDP-α-MSH or Eu-NDP-α-MSH, membranes of HEK-293 cells expressing recombinant hMC4-R. How it is done:
A competitive inhibition binding assay was performed using membrane homogenates prepared from HEK-293 cells that express recombinant hMC4-R, hMC3-R, or hMC5-R, and from B-16 mouse melanoma cells (containing endogenous MC1-R). In some instances, HEK-293 cells that express recombinant hMC1-R were employed. In the examples that follow, all MC3-R, MC4-R and MC5-R values are for human recombinant receptors. […] After incubation for 60 minutes at 37° C., the assay mixture was filtered and the membranes washed three times with ice-cold buffer. Filters were dried and counted in a gamma counter for bound radioactivity. […] Maximal specific binding (100%) was defined as the difference in radioactivity (cpm) bound to cell membranes in the absence and presence of 1 μM NDP-α-MSH. […] Ki values for test peptides of the present invention were determined using Graph-Pad Prism® curve-fitting software.
Alternatively, a competitive inhibition binding assay was performed employing Eu-NDP-α-MSH (PerkinElmer Life Sciences catalog No. AD0225) with determination by time-resolved fluorometry (TRF) of the lanthanide chelate. […] After incubation for 90 minutes at 37° C., the reaction was stopped by filtration over AcroWell 96-well filter plates (Pall Life Sciences). The filter plates were washed 4 times with 200 μL of ice-cold phosphate-buffered saline. DELFIA Enhancement solution (PerkinElmer Life Sciences) was added to each well. […] Each assay was conducted in duplicate and mean values were utilized. Ki values were determined by curve-fitting with Graph-Pad Prism® software using a one-site fixed-slope competition binding model.

Test [2] addresses T1, human MC4-R. Description: cAMP functional assay in HEK-293 T-REx cells expressing human MC4-R, induced with doxycycline 0.1 ng/mL (low density). The class given is cell-based. The settings on record: for Emax: HEK293-T-REx, maximal cAMP stimulation, NDP-α-MSH = 100%, read-out: Emax. An excerpt:
A HEK293 cell line transfected with human MC4-R (from Palatin Technologies, US, with license from the University of Michigan) was used. The human MC4-R was introduced to HEK293 by using the T-REx™ System, Invitrogen. The T-REx™ System employs a tetracycline-regulated mammalian expression system that uses regulatory elements from the E. coli Tn10-encoded tetracycline (Tet) resistance operon. By use of the T-REx™ System, expression of the gene of interest, the human MC4-R gene, is repressed in the absence of tetracycline or doxycycline and induced in the presence of tetracycline or doxycycline (see T-REx™ System Manual, published by Invitrogen).
Cells were then counted and volume was adjusted to 5×10^4 cells per 200 μL.
The cells were then dispensed into 96-well plates (BD 353916) in 198 μL (about 5×10^4) cells/well and incubated for 10 minutes at 37° C. The compound to be tested was diluted with DMSO to a final concentration of 1 mM. Serial dilution was prepared in polypropylene removable 12-well library tube strips (VWR cat #83009-682). 120 μL of the 1 mM compound stock was pipetted in the second column on the plate.
2 μL of the standard, [Nle^4, D-Phe^7]alpha-Melanocyte Stimulating Hormone (NDP-α-MSH), or compound was added to the 96-well plate using the Janus robotic system. All assay samples were run in duplicate (i.e. each sample was in two low dox and two high dox plates, respectively). The plates were gently shaken and incubated for 15 minutes at 37° C. The reaction was stopped by adding 15 μL of lysis buffer per well and the plates were shakened for 30 minutes at room temperature.
Agonist stimulation of the MC4-R activates adenylate cyclase, which is an enzyme that catalyses the formation 3′,5′-cyclic adenosine monophosphate (cAMP) from adenosine triphosphate (ATP). […] Fluoresence ratios were then calculated as described in the CisBio HTRF kit, with GraphPad Prism software used to plot the change in fluorescence percent values versus cAMP concentration using the variable slope dose response curve and, based on calculated cAMP concentrations, to determine EC50 and Emax values. […]

The mark [3] stands for this setting: human MC4-R, averages of all comparable assays, read-out: Ki.
Where [4] appears, read: doxycycline 0.1 ng/mL, averages of all comparable assays.
[5] abbreviates: human MC4-R cAMP assay, doxycycline 0.1 ng/mL, averages of all comparable assays, read-out: Ec50.

Where two headings read alike, the source gives them in different places. Bridge positions count the residues as written; N and C are the ends. Square brackets hold non-standard residues; d marks the D form. Peptide text beside a SMILES is read from it.

As a reminder, the Ki is the dissociation constant of the complex between target and ligand, obtained from inhibition or displacement. The Emax is the greatest response seen or fitted, relative to the assay's reference. As a reminder, the EC50 is the concentration at which the effect is half-maximal.

T1 sequence (P32245 whole entry): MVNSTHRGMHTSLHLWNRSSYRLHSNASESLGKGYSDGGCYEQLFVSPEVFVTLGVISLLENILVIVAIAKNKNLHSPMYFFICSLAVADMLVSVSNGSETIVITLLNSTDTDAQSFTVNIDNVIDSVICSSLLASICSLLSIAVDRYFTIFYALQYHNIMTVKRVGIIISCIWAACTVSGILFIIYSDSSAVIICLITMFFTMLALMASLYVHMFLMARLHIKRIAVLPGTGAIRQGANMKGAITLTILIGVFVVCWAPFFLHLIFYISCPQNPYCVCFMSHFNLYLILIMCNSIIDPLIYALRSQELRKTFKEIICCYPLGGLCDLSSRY

Turning to `CC(=O)N[C@@H](CCCNC(=N)N)C(=O)N[C@H]1CC(=O)NCCCC[C@@H](C(=O)O)NC(=O)[C@H](Cc2c[nH]c3ccccc23)NC(=O)[C@H](CCCNC(=N)N)NC(=O)[C@@H](Cc2ccccc2)NC(=O)[C@H](CCCN)NC1=O` [reference compound], the inhibition constant (Ki) on human MC4-R [1] (setting [3]) came out at 18 nM. The Emax at human MC4-R [2] (setting [4]) came to 84%. The EC50 on human MC4-R [2] (setting [5]) turned out to be 12 nM. The like results for `CC(=O)N[C@@H](CCCNC(=N)N)C(=O)N[C@H]1CCC(=O)NCCC[C@@H](C(N)=O)NC(=O)[C@H](Cc2c[nH]c3ccccc23)NC(=O)[C@H](CCCNC(=N)N)NC(=O)[C@@H](Cc2ccccc2)NC(=O)[C@@H]2C[C@@H](N)CN2C1=O` [No. 32, Ac-Arg-cyclo(Glu-Pro(4R-NH2)-D-Phe-Arg-Trp-Orn)-NH2] were, in that order, 6 nM, 55% and 8 nM. In the case of `CC(=O)N[C@@H](CCCNC(=N)N)C(=O)N[C@H]1CCC(=O)NCCC[C@@H](C(N)=O)NC(=O)[C@H](Cc2c[nH]c3ccccc23)NC(=O)[C@H](CCCNC(=N)N)NC(=O)[C@@H](Cc2ccccc2)NC(=O)[C@H](CCN)NC1=O` [No. 6, Ac-Arg-cyclo(Glu-Dab-D-Phe-Arg-Trp-Orn)-NH2], the Ki on human MC4-R [1] (setting [3]) was 4 nM. For the same compound, on human MC4-R [2] (setting [4]), the Emax was 94%. For the same compound, the EC50 at human MC4-R [2] (setting [5]) came to 0.3 nM. With `CCCC[C@H](NC(C)=O)C(=O)N[C@H]1CCCNC(=O)CC[C@@H](C(=O)O)NC(=O)[C@H](Cc2c[nH]c3ccccc23)NC(=O)[C@H](CCCNC(=N)N)NC(=O)[C@@H](Cc2ccccc2)NC(=O)[C@H](Cc2c[nH]cn2)NC1=O` [No. 35, Ac-Nle-cyclo(Orn-His-D-Phe-Arg-Trp-Glu)-OH], on human MC4-R [1] (setting [3]), the inhibition constant Ki came out at 1 nM. Also, at human MC4-R [2] (setting [4]), the Emax stood at 97%. Moreover, the EC50 at human MC4-R [2] (setting [5]) came to 2 nM.

Consider `CC(=O)NCCC[C@@H]1NC(=O)[C@@H](NC(=O)[C@H](CCCNC(=N)N)NC(C)=O)CCC(=O)NCCC[C@@H](C(N)=O)NC(=O)[C@H](Cc2c[nH]c3ccccc23)NC(=O)[C@H](CCCNC(=N)N)NC(=O)[C@@H](Cc2ccccc2)NC1=O` [No. 33, Ac-Arg-cyclo(Glu-Orn(Acetyl)-D-Phe-Arg-Trp-Orn)-NH2], for which the inhibition constant Ki at human MC4-R [1] (setting [3]) was found to be 7 nM. Besides, the Emax on human MC4-R [2] (setting [4]) worked out at 90%. In addition, the 50% effective concentration (EC50) at human MC4-R [2] (setting [5]) was 3 nM. Consider `CC(=O)N[C@@H](CCCNC(=N)N)C(=O)N[C@H]1CC(=O)NCCCC[C@@H](C(N)=O)NC(=O)[C@H](Cc2c[nH]c3ccccc23)NC(=O)[C@H](CCCNC(=N)N)NC(=O)[C@@H](Cc2ccccc2)NC(=O)[C@H](CC(N)=O)NC1=O` [reference compound] (Ac-RDN[dF]RWK-NH2; lactam 2-7), for which, on human MC4-R [1], the Ki was determined as 32 nM. In addition, the maximal response (Emax) on human MC4-R [2] (setting [4]) is 91%. Further, at human MC4-R [2] (setting [5]), the EC50 worked out at 42 nM. In the case of `CCCC[C@H](NC(C)=O)C(=O)N[C@H]1CCCNC(=O)CC[C@@H](C(N)=O)NC(=O)[C@H](Cc2c[nH]c3ccccc23)NC(=O)[C@H](CCCNC(=N)N)NC(=O)[C@@H](Cc2ccccc2)NC(=O)[C@H](Cc2c[nH]cn2)NC1=O` [No. 36, Ac-Nle-cyclo(Orn-His-D-Phe-Arg-Trp-Glu)-NH2], on human MC4-R [1] (setting [3]), the Ki was determined as 0.2 nM. Also, the Emax on human MC4-R [2] (setting [4]) came out at 85%. Also, the EC50 at human MC4-R [2] (setting [5]) was 0.2 nM.

In the case of `CC(=O)N[C@@H](CCCNC(=N)N)C(=O)N[C@H]1CCCNC(=O)CC[C@@H](C(N)=O)NC(=O)[C@H](Cc2c[nH]c3ccccc23)NC(=O)[C@H](CCCNC(=N)N)NC(=O)[C@@H](Cc2ccccc2)NC(=O)[C@H](CCN)NC1=O` [No. 43, Ac-Arg-cyclo(Orn-Dab-D-Phe-Arg-Trp-Glu)-NH2], the Ki on human MC4-R [1] was 3 nM. On human MC4-R [2] (setting [4]), the Emax came to 103%. The concentration giving a half-maximal response (EC50) on human MC4-R [2] (setting [5]) amounted to 0.1 nM. As for `CC(=O)N[C@@H](CCCNC(=N)N)C(=O)N[C@H]1CC(=O)NCCCC[C@@H](C(N)=O)NC(=O)[C@H](Cc2c[nH]c3ccccc23)NC(=O)[C@H](CCCNC(=N)N)NC(=O)[C@@H](Cc2ccccc2)NC(=O)[C@@H]2C[C@@H](O)CN2C1=O` [reference compound], the Emax at human MC4-R [2] (setting [4]) came out at 39%. On to `CC(=O)N[C@@H](CCCNC(=N)N)C(=O)N[C@H]1CCC(=O)NCCC[C@@H](C(=O)O)NC(=O)[C@H](Cc2c[nH]c3ccccc23)NC(=O)[C@H](CCCNC(=N)N)NC(=O)[C@@H](Cc2ccccc2)NC(=O)[C@H](CCN)NC1=O` [No. 5, Ac-Arg-cyclo(Glu-Dab-D-Phe-Arg-Trp-Orn)-OH], for which the Emax at human MC4-R [2] (setting [4]) came out at 94%. For the same compound, on human MC4-R [2] (setting [5]), the EC50 came out at 2 nM. In the case of `CC(=O)N[C@@H](CCCNC(=N)N)C(=O)N[C@H]1CC(=O)NCCCC[C@@H](C(N)=O)NC(=O)[C@H](Cc2c[nH]c3ccccc23)NC(=O)[C@H](CCCNC(=N)N)NC(=O)[C@@H](Cc2ccccc2)NC(=O)[C@H](CCCNC(=N)N)NC1=O` [reference compound], at human MC4-R [2] (setting [4]), the Emax came out at 68%. As for `CC(=O)N[C@H]1CC(=O)NCCCC[C@@H](C(N)=O)NC(=O)[C@H](Cc2c[nH]c3ccccc23)NC(=O)[C@H](CCCNC(=N)N)NC(=O)[C@@H](Cc2ccccc2)NC(=O)[C@H](CCC(N)=O)NC1=O` [reference compound] (Ac-DQ[dF]RWK-NH2; lactam 1-6), the Emax on human MC4-R [2] (setting [4]) worked out at 35%. Same read-out and setting: to `CC(=O)N[C@@H](CCCNC(=N)N)C(=O)N[C@H]1CC(=O)NCCCC[C@@H](C(N)=O)NC(=O)[C@H](Cc2c[nH]c3ccccc23)NC(=O)[C@H](CCCNC(=N)N)NC(=O)[C@@H](Cc2ccccc2)NC(=O)[C@H](CCCNC(N)=O)NC1=O` [reference compound] belongs 69%.

`CC(=O)N[C@@H](CCCNC(=N)N)C(=O)N[C@H]1CCC(=O)NCCC[C@@H](C(N)=O)NC(=O)[C@H](Cc2c[nH]c3ccccc23)NC(=O)[C@H](CCCNC(=N)N)NC(=O)[C@@H](Cc2ccccc2)NC(=O)[C@@H]2C[C@@H](O)CN2C1=O` [No. 14, Ac-Arg-cyclo(Glu-Hyp-D-Phe-Arg-Trp-Orn)-NH2]: at human MC4-R [2] (setting [4]), the Emax was 104%. In the case of `CC(=O)N[C@@H](CCCNC(=N)N)C(=O)N[C@H]1CCC(=O)NCCC[C@@H](C(N)=O)NC(=O)[C@H](Cc2c[nH]c3ccccc23)NC(=O)[C@H](CCCNC(=N)N)NC(=O)[C@@H](Cc2ccccc2)NC(=O)[C@H](CCCNC(N)=O)NC1=O` [No. 15, Ac-Arg-cyclo(Glu-Cit-D-Phe-Arg-Trp-Orn)-NH2], the Emax on human MC4-R [2] (setting [4]) amounted to 87%. `CC(=O)N[C@@H](CCCNC(=N)N)C(=O)N[C@H]1CC(=O)NCCCC[C@@H](C(N)=O)NC(=O)[C@H](Cc2c[nH]c3ccccc23)NC(=O)[C@H](CCCNC(=N)N)NC(=O)[C@@H](Cc2ccccc2)NC(=O)[C@H](CCC(N)=O)NC1=O` [reference compound] gave an EC50 at human MC4-R [2] of 17 nM. Besides, the Emax at human MC4-R [2] (setting [4]) is 85%.

For `CC(=O)N[C@@H](CCCNC(=N)N)C(=O)N[C@H]1CC(=O)NCCCC[C@@H](C(N)=O)NC(=O)[C@H](Cc2c[nH]c3ccccc23)NC(=O)[C@H](CCCNC(=N)N)NC(=O)[C@@H](Cc2ccccc2)NC(=O)[C@@H]2CCCN2C1=O` [reference compound], the Emax on human MC4-R [2] (setting [4]) was determined as 43%.

`CC(=O)N[C@@H](CCCNC(=N)N)C(=O)N[C@H]1CC(=O)NCCCC[C@@H](C(=O)O)NC(=O)[C@H](Cc2c[nH]c3ccccc23)NC(=O)[C@H](CCCNC(=N)N)NC(=O)[C@@H](Cc2ccccc2)NC(=O)[C@H](CCN)NC1=O` [reference compound]: the Emax at human MC4-R [2] (setting [4]) amounted to 91%. Regarding `CC(=O)N[C@H](CCCNC(=N)N)C(=O)N[C@H]1CC(=O)NCCCC[C@@H](C(N)=O)NC(=O)[C@H](Cc2c[nH]c3ccccc23)NC(=O)[C@H](CCCNC(=N)N)NC(=O)[C@@H](Cc2ccccc2)NC(=O)[C@H](Cc2c[nH]cn2)NC1=O` [reference compound], the maximal effect (Emax) on human MC4-R [2] (setting [4]) stood at 89%.
